Test results reported in EP0249401A1, “Antianemic agent” (YAMANOUCHI PHARMACEUTICAL CO. LTD., priority 1986, dated 1987).

Experiment: Acute toxicity (LD50) on intraperitoneal injection into mice
Details: mouse, in vivo, ip

Question: With `CC(C)OC(=O)CNC(=O)[C@H](CS)NC(=O)CC[C@H](N)C(=O)O` [isopropyl ester, isopropyl y-L-glutamyl-L-cysteinylglycinate] as the compound, how does the LD50 read?
Answer: ~5300 mg/kg
